Results published in patent EP4813381A1, “PHARMACEUTICAL USE OF GUAIANE SESQUITERPENE DERIVATIVE” (Nanjing University Of Chinese Medicine, priority 2023, dated 2025).

Key:
[1] = test system: MDSCs and T cells; test: T cell proliferation in a co-culture model of MDSCs and T cells (flow cytometry); format: cell-based, mice; settings: MDSCs treated with 1 µM compound for 12 h, 48 h co-culture with T cells (1:1), compared to the control group
Experimental: Under sterile conditions, the tibia was removed, both ends of the bone were cut, and bone marrow was repeatedly flushed into a 15 mL centrifuge tube using a 1 mL syringe filled with culture medium. Centrifuge at 1600 rpm for 5 min to collect bone marrow cells. […] The spleen cell suspension was then transferred into a 15 mL centrifuge tube. Centrifuge at 1600 rpm for 5 min to collect T cells. Wash twice with 1×PBS. Resuspend the centrifuged T cells in 1 mL PBS and add 1 mL of 10 µM CFDA-SE solution. Incubate at room temperature for 8 min. […] After drug administration, collect MDSC cells into centrifuge tubes. Centrifuge at 1600 rpm for 5 min, remove supernatant, resuspend in 1 mL fresh medium, and plate. Add 1 mL stimulated activated T cells (1:1 ratio) for 48 h co-culture. After incubation, collect cells into centrifuge tubes, wash twice with PBS, and incubate with Fc antibody at room temperature in the dark for 10 min. Add CD3-labeled flow cytometry antibody and incubate at 4 °C in the dark for 30 min. After incubation, wash cells with PBS, resuspend in 300 µL PBS, and analyze by flow cytometry.

[2] = Conversion rate of salt-form prodrugs to parent compound in HEPES buffer solution; format: physicochemical
Experimental: Adjust the pH to 7.4 using 0.5 M NaOH, then dilute to a final volume 100 mL with distilled water.
(§1) Sample Analysis: Dissolve 0.6 mg of the compound in 250 µl of deionized water separately. Add 250 µl of mouse serum or HEPES 7.4 solution to the sample, incubate at a constant temperature of 37 °C, and collect samples at different time points. Pipette 20 µl of the sample to an EP tube, add 60 µl of methanol, vortex to mix thoroughly, and centrifuge at 12,000 rpm at 4 °C for 10 min. At 1 h, 2 h, 4 h, 8 h, and 12 h respectively, collect the supernatant for HPLC analysis. Inject 10 µL of sample and record the corresponding peak areas.

[3] = Conversion rate of salt-form prodrugs to parent compound in mouse plasma; format: in vitro ADME; settings: 37 °C
Experimental: Pharmaceutically acceptable salts of guaiane-type sesquiterpene lactone derivatives were selected and evaluated for their conversion rates to Compound 1 and Compound 83 in plasma and HEPES buffer, with results shown in Tables 2-1, 2-2, 3-1, and 3-2.
Plasma Preparation: Collect mouse plasma into an EP tube pre-loaded with sodium heparin, centrifuge at 8000 rpm for 10 minutes at 4°C, and then collect the supernatant.
as §1, with “areas. Chromatographic conditions: Hanbang C18 column (4.6 × 250 mm, 5 µm); mobile phase: acetonitrile: […] ammonium formate solution = 60:40; flow rate 1.0 mL/min; detection wavelength 210 nm; column temperature 30 °C. [drawing 171] Table 2-1. Conversion Rate of Compounds 20-42 to Compound 1 at Different Time Points in HEPES Buffer Solution” for “areas.”

[4] = conversion to Compound 1, HEPES buffer pH 7.4, 37 °C, 1 h
[5] = conversion to Compound 1, HEPES buffer pH 7.4, 37 °C, 2 h
[6] = conversion to Compound 1, HEPES buffer pH 7.4, 37 °C, 4 h
[7] = conversion to Compound 1, HEPES buffer pH 7.4, 37 °C, 8 h
[8] = conversion to Compound 1, HEPES buffer pH 7.4, 37 °C, 12 h
[9] = conversion to Compound 1, mouse plasma, 1 h
[10] = conversion to Compound 1, mouse plasma, 2 h
[11] = conversion to Compound 1, mouse plasma, 8 h
[12] = conversion to Compound 1, mouse plasma, 12 h
[13] = conversion to Compound 83, HEPES buffer pH 7.4, 37 °C, 1 h
[14] = conversion to Compound 83, HEPES buffer pH 7.4, 37 °C, 2 h
[15] = conversion to Compound 83, HEPES buffer pH 7.4, 37 °C, 4 h
[16] = conversion to Compound 83, HEPES buffer pH 7.4, 37 °C, 8 h
[17] = conversion to Compound 83, HEPES buffer pH 7.4, 37 °C, 12 h
[18] = conversion to Compound 83, mouse plasma, 1 h
[19] = conversion to Compound 83, mouse plasma, 2 h
[20] = conversion to Compound 83, mouse plasma, 4 h
[21] = conversion to Compound 83, mouse plasma, 8 h
[22] = conversion to Compound 83, mouse plasma, 12 h

CN(C)C[C@@H]1C(=O)O[C@H]2[C@H]1CC[C@@]1(C)C[C@]13CC[C@@](C)(O)[C@H]23 [compound 2]
T-cell proliferation rate (%) [1]: ++ (T-cell proliferation rate within the 20-40% range compared to the control group)

CN(C)C[C@@H]1C(=O)O[C@H]2[C@H]1CC[C@@]1(C)C[C@]13CC[C@@](C)(O)[C@H]23 [compound 41]
Release rate [2, 4]: 7.0%
Release rate [2, 5]: 16.2%
Release rate [2, 6]: 27.3%
Release rate [2, 7]: 43.4%
Release rate [2, 8]: 53.2%
Release rate [3, 9]: 7.8%
Release rate [3, 10]: 17.2%
Release rate ([3]; conversion to Compound 1, mouse plasma, 4 h): 28.0%
Release rate [3, 11]: 46.1%
Release rate [3, 12]: 54.8%

CN(C)C[C@@H]1C(=O)O[C@H]2[C@H]1CC[C@@]1(C)C[C@]13CC[C@@](C)(O)[C@H]23 [compound 42]
Release rate [2, 4]: 7.0%
Release rate [2, 5]: 15.0%
Release rate [2, 6]: 25.2%
Release rate [2, 7]: 42.8%
Release rate [2, 8]: 52.3%
Release rate [3, 9]: 6.3%
Release rate [3, 10]: 14.2%
Release rate [3, 11]: 41.0%
Release rate [3, 12]: 47.2%

CC1CCN(C[C@@H]2C(=O)O[C@H]3[C@H]2CC[C@@]2(C)C[C@]24CC[C@@](C)(O)[C@H]34)CC1 [compound 43]
T-cell proliferation rate (%) [1]: + (T-cell proliferation rate within the 0-20% range compared to the control group)

CC(C)(C)OC(=O)N1CCN(C[C@@H]2C(=O)O[C@H]3[C@H]2CC[C@@]2(C)C[C@]24CC[C@@](C)(O)[C@H]34)CC1 [compound 44]
T-cell proliferation rate (%) [1]: + (T-cell proliferation rate within the 0-20% range compared to the control group)

CN(C)C[C@@H]1C(=O)O[C@H]2[C@H]1CC[C@@]1(C)C[C@]13C[C@@H](O)[C@@](C)(O)[C@H]23 [compound 60]
T-cell proliferation rate (%) [1]: + (T-cell proliferation rate within the 0-20% range compared to the control group)

CC1=C2[C@H]3OC(=O)[C@@H](CN(C)C)[C@@H]3CC[C@@]3(C)C[C@@]23CC1 [compound 62]
T-cell proliferation rate (%) [1]: + (T-cell proliferation rate within the 0-20% range compared to the control group)

CCC(=O)O[C@]1(C)CC[C@@]23C[C@]2(C)CC[C@@H]2[C@H](CC(=O)[C@H]2CN(C)C)[C@H]31 [compound 63]
T-cell proliferation rate (%) [1]: + (T-cell proliferation rate within the 0-20% range compared to the control group)

C=C1C(=O)O[C@H]2[C@H]1CCC(C)=C1CC[C@@](C)(OC(=O)NC)[C@@H]12 [compound 64]
T-cell proliferation rate (%) [1]: +++ (T-cell proliferation rate >40% compared to the control group)

C=C1C(=O)O[C@H]2[C@H]1CCC(C)=C1CC[C@@](C)(OC(=O)NCC)[C@@H]12 [compound 65]
T-cell proliferation rate (%) [1]: + (T-cell proliferation rate within the 0-20% range compared to the control group)

C=C1C(=O)O[C@H]2[C@H]1CCC(C)=C1CC[C@@](C)(OC(=O)NCCC)[C@@H]12 [compound 66]
T-cell proliferation rate (%) [1]: + (T-cell proliferation rate within the 0-20% range compared to the control group)

C=C1C(=O)O[C@H]2[C@H]1CCC(C)=C1CC[C@@](C)(OC(=O)NCCCC)[C@@H]12 [compound 67]
T-cell proliferation rate (%) [1]: ++ (T-cell proliferation rate within the 20-40% range compared to the control group)

C=C1C(=O)O[C@H]2[C@H]1CCC(C)=C1CC[C@@](C)(OC(=O)NC(C)C)[C@@H]12 [compound 68]
T-cell proliferation rate (%) [1]: + (T-cell proliferation rate within the 0-20% range compared to the control group)

C=C1C(=O)O[C@H]2[C@H]1CCC(C)=C1CC[C@@](C)(OC(=O)NC(CC)CC)[C@@H]12 [compound 69]
T-cell proliferation rate (%) [1]: ++ (T-cell proliferation rate within the 20-40% range compared to the control group)

C=C1C(=O)O[C@H]2[C@H]1CCC(C)=C1CC[C@@](C)(OC(=O)NC3CC3)[C@@H]12 [compound 70]
T-cell proliferation rate (%) [1]: + (T-cell proliferation rate within the 0-20% range compared to the control group)

C=C1C(=O)O[C@H]2[C@H]1CCC(C)=C1CC[C@@](C)(OC(=O)NCCO)[C@@H]12 [compound 71]
T-cell proliferation rate (%) [1]: +++ (T-cell proliferation rate >40% compared to the control group)

C=C1C(=O)O[C@H]2[C@H]1CCC(C)=C1CC[C@@](C)(OC(=O)NCCCO)[C@@H]12 [compound 72]
T-cell proliferation rate (%) [1]: ++ (T-cell proliferation rate within the 20-40% range compared to the control group)

C=C1C(=O)O[C@H]2[C@H]1CCC(C)=C1CC[C@@](C)(OC(=O)NCCOC)[C@@H]12 [compound 74]
T-cell proliferation rate (%) [1]: +++ (T-cell proliferation rate >40% compared to the control group)

C=C1C(=O)O[C@H]2[C@H]1CCC(C)=C1CC[C@@](C)(OC(=O)NCCCOC)[C@@H]12 [compound 75]
T-cell proliferation rate (%) [1]: ++ (T-cell proliferation rate within the 20-40% range compared to the control group)

C=C1C(=O)O[C@H]2[C@H]1CCC(C)=C1CC[C@@](C)(OC(=O)NCCOCCO)[C@@H]12 [compound 76]
T-cell proliferation rate (%) [1]: ++ (T-cell proliferation rate within the 20-40% range compared to the control group)

C=C1C(=O)O[C@H]2[C@H]1CCC(C)=C1CC[C@@](C)(OC(=O)NCCN(C)C)[C@@H]12 [compound 77]
T-cell proliferation rate (%) [1]: + (T-cell proliferation rate within the 0-20% range compared to the control group)

C=C1C(=O)O[C@H]2[C@H]1CCC(C)=C1CC[C@@](C)(OC(=O)NCc3ccccc3)[C@@H]12 [compound 79]
T-cell proliferation rate (%) [1]: ++ (T-cell proliferation rate within the 20-40% range compared to the control group)

C=C1C(=O)O[C@H]2[C@H]1CCC(C)=C1CC[C@@](C)(OC(=O)N(C)C)[C@@H]12 [compound 80]
T-cell proliferation rate (%) [1]: ++ (T-cell proliferation rate within the 20-40% range compared to the control group)

C=C1C(=O)O[C@H]2[C@H]1CCC(C)=C1CC[C@@](C)(OC(=O)N(CC)CC)[C@@H]12 [compound 81]
T-cell proliferation rate (%) [1]: ++ (T-cell proliferation rate within the 20-40% range compared to the control group)

C=C1C(=O)O[C@H]2[C@H]1CCC(C)=C1CC[C@@](C)(OC(=O)N3CCCC3)[C@@H]12 [compound 82]
T-cell proliferation rate (%) [1]: + (T-cell proliferation rate within the 0-20% range compared to the control group)

CC1=C2CC[C@@](C)(OC(=O)N3CCCCC3)[C@@H]2[C@H]2OC(=O)[C@@H](CN3CCCC3)[C@@H]2CC1 [compound 100]
Release rate [2, 13]: 6.5%
Release rate [2, 14]: 14.0%
Release rate [2, 15]: 26.4%
Release rate [2, 16]: 45.2%
Release rate [2, 17]: 51.4%
Release rate [3, 18]: 6.6%
Release rate [3, 19]: 13.8%
Release rate [3, 20]: 25.6%
Release rate [3, 21]: 43.2%
Release rate [3, 22]: 53.0%

CC1=C2CC[C@@](C)(OC(=O)N3CCCCC3)[C@@H]2[C@H]2OC(=O)[C@@H](CN3CCCC3)[C@@H]2CC1 [compound 101]
Release rate [2, 13]: 7.0%
Release rate [2, 14]: 16.0%
Release rate [2, 15]: 28.2%
Release rate [2, 16]: 46.4%
Release rate [2, 17]: 53.6%
Release rate [3, 18]: 7.6%
Release rate [3, 19]: 16.6%
Release rate [3, 20]: 27.4%
Release rate [3, 21]: 46.0%
Release rate [3, 22]: 54.2%
